Activity calls are given as the source filed them. The calls are words filed in the database; no cut-off is given here.
Legend:
Pseudomonas aeruginosa [1] = assay: Antibacterial activity against Pseudomonas aeruginosa PAO1 in ABTGC medium assessed as bacterial growth inhibition incubated for 16 hrs; type: functional
Pseudomonas aeruginosa [2] = assay: Antibiofilm activity against Pseudomonas aeruginosa PAO1 in ABTGC medium assessed as inhibition of biofilm formation incubated for 24 hrs by crystal violet staining based absorbance assay; type: functional, organism-based; conditions: PAO1, 24 h
Pseudomonas aeruginosa [3] = assay: In vivo antibacterial activity against Pseudomonas aeruginosa PAO1 infected in Balb/c mouse wound infection model assessed as healing degree of wound at 0.005 mg/ml,TOP QD for 3 days and measured after 9 days; type: functional, organism-based; conditions: time 3.0 day
[4] = Toxicity in Balb/c mouse wound infection model infected with Pseudomonas aeruginosa PAO1 assessed as morphological changes in kidney at 0.0025 mg/ml,TOP for 3 days in presence of N-hydroxy-7-((6-methyl-2-oxo-2H-chromen-4-yl)oxy)heptanamide by H and E staining based analysis; type: tissue-based; conditions: in vivo, topical_or_ocular, 72 h, time 3 day
[5] = Toxicity in Balb/c mouse wound infection model infected with Pseudomonas aeruginosa PAO1 assessed as morphological changes in heart at 0.0025 to 0.5 mg/ml,TOP for 3 days by H and E staining based analysis; type: tissue-based; conditions: in vivo, topical_or_ocular, 72 h, dose 0.0025-0.5 mg/ml, time 3 day
[6] = Toxicity in Balb/c mouse wound infection model infected with Pseudomonas aeruginosa PAO1 assessed as body weight change at 0.0025 to 0.5 mg/ml,TOP for 3 days; conditions: in vivo, topical_or_ocular, 72 h, dose 0.0025-0.5 mg/ml, time 3 day
Pseudomonas aeruginosa [7] = assay: In vivo antibacterial activity against Pseudomonas aeruginosa PAO1 infected in Balb/c mouse wound infection model assessed as reduction in bacterial survival rate at wounded area at 0.5 mg/ml,TOP QD for 3 days by CFU assay; type: functional; conditions: time 3 day
[8] = Toxicity in Balb/c mouse wound infection model infected with Pseudomonas aeruginosa PAO1 assessed as morphological changes in lung at 0.0025 mg/ml,TOP for 3 days in presence of N-hydroxy-7-((6-methyl-2-oxo-2H-chromen-4-yl)oxy)heptanamide by H and E staining based analysis; type: tissue-based; conditions: in vivo, topical_or_ocular, 72 h, time 3 day
Pseudomonas aeruginosa [9] = assay: In vivo antibacterial activity against Pseudomonas aeruginosa PAO1 infected in Balb/c mouse wound infection model assessed as healing degree of wound at 0.5 mg/ml,TOP QD for 3 days and measured after 9 days; type: functional, organism-based; conditions: time 3.0 day
[10] = Toxicity in Balb/c mouse wound infection model infected with Pseudomonas aeruginosa PAO1 assessed as morphological changes in spleen at 0.0025 mg/ml,TOP for 3 days in presence of N-hydroxy-7-((6-methyl-2-oxo-2H-chromen-4-yl)oxy)heptanamide by H and E staining based analysis; type: tissue-based; conditions: in vivo, topical_or_ocular, 72 h, time 3 day
[11] = Toxicity in Balb/c mouse wound infection model infected with Pseudomonas aeruginosa PAO1 assessed as morphological changes in kidney at 0.0025 to 0.5 mg/ml,TOP for 3 days by H and E staining based analysis; type: tissue-based; conditions: in vivo, topical_or_ocular, 72 h, dose 0.0025-0.5 mg/ml, time 3 day
[12] = Toxicity in Balb/c mouse wound infection model infected with Pseudomonas aeruginosa PAO1 assessed as morphological changes in lung at 0.0025 to 0.5 mg/ml,TOP for 3 days by H and E staining based analysis; type: tissue-based; conditions: in vivo, topical_or_ocular, 72 h, dose 0.0025-0.5 mg/ml, time 3 day
[13] = Toxicity in Balb/c mouse wound infection model infected with Pseudomonas aeruginosa PAO1 assessed as morphological changes in spleen at 0.0025 to 0.5 mg/ml,TOP for 3 days by H and E staining based analysis; type: tissue-based; conditions: in vivo, topical_or_ocular, 72 h, dose 0.0025-0.5 mg/ml, time 3 day
[14] = Toxicity in Balb/c mouse wound infection model infected with Pseudomonas aeruginosa PAO1 assessed as body weight change at 0.0025 mg/ml,TOP for 3 days in presence of N-hydroxy-7-((6-methyl-2-oxo-2H-chromen-4-yl)oxy)heptanamide; conditions: in vivo, topical_or_ocular, 72 h, time 3 day
[15] = Toxicity in Balb/c mouse wound infection model infected with Pseudomonas aeruginosa PAO1 assessed as morphological changes in liver at 0.0025 to 0.5 mg/ml,TOP for 3 days by H and E staining based analysis; type: tissue-based; conditions: in vivo, topical_or_ocular, 72 h, dose 0.0025-0.5 mg/ml, time 3 day
[16] = Toxicity in Balb/c mouse wound infection model infected with Pseudomonas aeruginosa PAO1 assessed as morphological changes in heart at 0.0025 mg/ml,TOP for 3 days in presence of N-hydroxy-7-((6-methyl-2-oxo-2H-chromen-4-yl)oxy)heptanamide by H and E staining based analysis; type: tissue-based; conditions: in vivo, topical_or_ocular, 72 h, time 3 day
[17] = Toxicity in Balb/c mouse wound infection model infected with Pseudomonas aeruginosa PAO1 assessed as morphological changes in liver at 0.0025 mg/ml,TOP for 3 days in presence of N-hydroxy-7-((6-methyl-2-oxo-2H-chromen-4-yl)oxy)heptanamide by H and E staining based analysis; type: tissue-based; conditions: in vivo, topical_or_ocular, 72 h, time 3 day
[18] = Metal chelating activity assessed as Fe3+-compound complex formation assessed as pFe(III) value by fluorescence method
Pseudomonas aeruginosa [19] = assay: Inhibition of iron homeostasis in Pseudomonas aeruginosa PAO1 in ABTGC medium assessed as decrease in iron level at 1.25 to 20 uM in presence of FeCl3 by fluorescence based microplate reader analysis (Rvb= 9.6+/-2.00 microM); type: functional; conditions: dose 1.25-20 µM

Compound	MIC (Pseudomonas aeruginosa [1]) [µM]	IC50 (Pseudomonas aeruginosa [2]) [µM]	also measured
O=C(CCCOc1cc(=O)oc2ccc(Cl)cc12)NO	> 256	> 100	–
O=C(CCCCCOc1cc(=O)oc2ccc(Cl)cc12)NO	> 256	> 100	–
O=C(O)c1cn(C2CC2)c2cc(N3CCNCC3)c(F)cc2c1=O	–	–	Activity (Pseudomonas aeruginosa [3]): Active
O=C(CCCCOc1cc(=O)oc2ccc(Cl)cc12)NO	> 256	> 100	–
COc1ccc2oc(=O)cc(OCCCC(=O)NO)c2c1	> 256	> 100	–
O=C(CCCCCCOc1cc(=O)oc2ccccc12)NO	> 256	69.2	–
Cc1ccc2oc(=O)cc(OCCCC(=O)NO)c2c1	> 256	77.4	–
Cc1ccc2oc(=O)cc(OCc3ccc(C(=O)NO)cc3)c2c1	> 256	> 100	–
O=C(CCCCCOc1cc(=O)oc2ccccc12)NO	> 256	69.7	–
O=C(CCCCCOc1cc(=O)oc2ccc(Br)cc12)NO	> 256	> 100	–
CCCCCCCOc1cc(=O)oc2ccc(C)cc12	> 256	> 100	–
NC[C@H]1O[C@H](O[C@H]2[C@H](O)[C@@H](O[C@H]3O[C@H](CO)[C@@H](O)[C@H](N)[C@H]3O)[C@H](N)C[C@@H]2N)[C@H](N)C[C@@H]1O [TOBRAMYCIN]	–	–	Activity [4]: Non-Toxic; Activity [5]: Non-Toxic; Activity [6]: Non-Toxic; Activity (Pseudomonas aeruginosa [7]): 5.77%; Activity [8]: Non-Toxic; Activity (Pseudomonas aeruginosa [9]): Active; Activity [10]: Non-Toxic; Activity [11]: Non-Toxic; Activity [12]: Non-Toxic; Activity [13]: Non-Toxic; Activity [14]: Non-Toxic; Activity [15]: Non-Toxic; Activity [16]: Non-Toxic; Activity [17]: Non-Toxic
Cc1ccc2oc(=O)cc(NCCCC(=O)NO)c2c1	> 256	> 100	–
CC[C@H]1OC(=O)[C@H](C)[C@@H](O[C@H]2C[C@@](C)(OC)[C@@H](O)[C@H](C)O2)[C@H](C)[C@@H](O[C@@H]2O[C@H](C)C[C@H](N(C)C)[C@H]2O)[C@](C)(O)C[C@@H](C)CN(C)[C@H](C)[C@@H](O)[C@]1(C)O [AZITHROMYCIN]	–	17.3	–
O=C(CCCOc1cc(=O)oc2cc(Cl)ccc12)NO	> 256	88.4	–
O=C(CCCCCCOc1cc(=O)oc2ccc(Br)cc12)NO	> 256	44.4	–
Cc1ccccc1OCCCCCCC(=O)NO	> 256	> 100	–
CCCCCCCCOc1cc(=O)oc2ccc(C)cc12	> 256	> 100	–
O=C(CCCCOc1cc(=O)oc2cc(Cl)ccc12)NO	> 256	42.3	–
Cc1ccc2oc(=O)cc(NCCCCC(=O)NO)c2c1	> 256	> 100	–
Cc1ccc2oc(=O)cc(OCCCCCC(=O)NO)c2c1	> 256	12.3	–
COc1ccc2oc(=O)cc(OCCCCCCC(=O)NO)c2c1	> 256	> 100	–
O=C(CCCOc1cc(=O)oc2ccccc12)NO	> 256	88.4	–
CCCCCCOc1cc(=O)oc2ccc(C)cc12	> 256	> 100	–
O=C(CCCCCCOc1cc(=O)oc2cc(Cl)ccc12)NO	> 256	> 100	–
Cc1ccc2oc(=O)cc(NCCCCCCC(=O)NO)c2c1	> 256	> 100	–
Cc1ccc2c(OCCCCC(=O)NO)cc(=O)oc2c1	> 256	> 100	–

Compound	MIC (Pseudomonas aeruginosa [1]) [µM]	IC50 (Pseudomonas aeruginosa [2]) [µM]	also measured
Cc1c(O)c(=O)ccn1C [DEFERIPRONE]	–	–	pFe(III) [18]: 20.1; Activity (Pseudomonas aeruginosa [19]): 7.74 µM
O=C(CCCCOc1cc(=O)oc2ccc(Br)cc12)NO	> 256	29.7	–
Cc1ccc2oc(=O)cc(OCCCCCCCCC(=O)NO)c2c1	> 256	20.4	–
Cc1ccc2c(OCCCCCC(=O)NO)cc(=O)oc2c1	> 256	> 100	–
COc1ccc2c(OCCCCCCC(=O)NO)cc(=O)oc2c1	> 256	4.74	–
COc1ccc2oc(=O)cc(OCCCCCC(=O)NO)c2c1	> 256	> 100	–
COc1ccc2oc(=O)cc(OCCCCC(=O)NO)c2c1	> 256	> 100	–
Cc1ccc2oc(=O)cc(NCCCCCC(=O)NO)c2c1	> 256	> 100	–
COc1ccc2c(OCCCCC(=O)NO)cc(=O)oc2c1	> 256	> 100	–
Cc1ccc2c(OCCCCCCC(=O)NO)cc(=O)oc2c1	> 256	> 100	–
Cc1ccc2c(OCCCC(=O)NO)cc(=O)oc2c1	> 256	> 100	–
Cc1ccc2oc(=O)cc(OCCCCCCCC(=O)NO)c2c1	> 256	> 100	–
O=C(CCCCCOc1cc(=O)oc2cc(Cl)ccc12)NO	> 256	> 100	–
O=C(CCCOc1cc(=O)oc2ccc(Br)cc12)NO	> 256	70	–
O=C(CCCOc1cc(=O)oc2ccc(F)cc12)NO	> 256	> 100	–
COc1ccc2c(OCCCC(=O)NO)cc(=O)oc2c1	> 256	> 100	–
O=C(CCCCOc1cc(=O)oc2ccccc12)NO	> 256	42.3	–
Cc1ccc(OCCCCCCC(=O)NO)cc1	> 256	> 100	–
Cc1cccc(OCCCCCCC(=O)NO)c1	> 256	> 100	–
O=C(CCCCCCOc1ccccc1)NO	> 256	> 100	–
O=C(CCCCCCOc1cc(=O)oc2ccc(F)cc12)NO	> 256	26.4	–
Cc1ccc2oc(=O)cc(OCCCCC(=O)NO)c2c1	> 256	12.8	–
O=C(CCCCOc1cc(=O)oc2ccc(F)cc12)NO	> 256	9.8	–
O=C(CCCCCCOc1cc(=O)oc2ccc(Cl)cc12)NO	> 256	> 100	–
COc1ccc2c(OCCCCCC(=O)NO)cc(=O)oc2c1	> 256	9.37	–
O=C(CCCCCOc1cc(=O)oc2ccc(F)cc12)NO	> 256	58.6	–

Source: ChEMBL document CHEMBL5370649, “Novel Coumarin Derivatives Inhibit the Quorum Sensing System and Iron Homeostasis as Antibacterial Synergists against Pseudomonas aeruginosa” (J Med Chem, 2023)
